Results taken from patent US12427192B2, “Water soluble adjuvant and composition containing same” (Sumitomo Pharma Co., Ltd., priority 2019, dated 2025).

What was measured:
[1] = tested on: HLA-A*02:01 transgenic mouse; test: Test 4: in vivo adjuvant activity, cocktail vaccine a, IFNγ ELISPOT
Description: Evaluation of in vivo adjuvant activity in HLA-A*02:01 transgenic mouse
The in vivo adjuvant activity of the compound of Example 1 and the compound of Reference example 12 was evaluated in the following procedure. To a cocktail vaccine comprising Compound of formula 4 prepared in Reference example 8 and Peptide SEQ ID No. 3 prepared in Reference example 3 with a preliminarily-emulsified composition (hereinafter, referred to as “cocktail vaccine a”) was added the compound prepared in Example 1 or the compound prepared in Reference example 12 respectively to prepare each vaccine. The vaccine was administered to a HLA-A*02:01 transgenic mouse, and the adjuvant activity of each vaccine was evaluated by the method of testing antigen-specific CTL induction.
The RMFPNAPYL (SEQ ID No. 1) in Compound of formula 4 and the VLDFAPPGA (SEQ ID No. 4) in Peptide SEQ ID No. 3 correspond to antigen peptides derived from an HLA-A*02:01-restricted WT1 protein.
HLA-A*02:01 transgenic mouse (C57BL/6CrHLA-A2.1DR1) lacks mouse MHC, and instead expresses a chimeric HLA of a human MHC (HLA-A*02:01) and a mouse MHC (H-2D^b), and HLA-DRB1*01:01. […]
The character for inducing CTLs specific to the antigen peptide (SEQ ID No. 1 or SEQ ID No. 4) by cocktail vaccine a was evaluated by measuring whether IFNγ can be produced upon stimulation of splenocytes from the mouse with the corresponding peptide. […]

[2] = tested on: HLA-A*02:01 transgenic mouse; test: Test 11: in vivo adjuvant activity, cocktail vaccine f (emulsified composition 1), IFNγ ELISPOT; conditions: added to cocktail vaccine f (emulsified composition 1); 0.04 nmol or 0.4 nmol per body, twice; FIG. 10 and 11
Description: Evaluation of In Vivo Adjuvant Activity in HLA-A*02:01 Transgenic Mouse
The in vivo adjuvant activity of the compound of Example 1 was evaluated in the following procedure. To a cocktail vaccine (emulsified composition 1) comprising Compound of formula 4 prepared in Reference example 8 and Peptide SEQ ID No. 3 prepared in Reference example 3 (hereinafter, referred to as “cocktail vaccine f”) was added the compound prepared in Example 1 to prepare a vaccine. The vaccine was administered to a HLA-A*02:01 transgenic mouse, and the adjuvant activity of the vaccine was evaluated by the method of testing antigen-specific CTL induction.
For example, the above emulsified composition 1 was prepared as follows. 95.8% (w/w) of soybean oil, 3% (w/w) of PEG-30 dipolyhydroxy stearate, and 1.2% (w/w) of polysorbate 80 were mixed to prepare an oil-phase mixture. The amount of the preparation was adjusted as appropriate. Compound of formula 4 and Peptide SEQ ID No. 3 were mixed with pH 2.5 buffer (10 mM tartaric acid, 10% trehalose) to adjust each concentration to 3 mg/mL and 2.25 mg/mL, respectively. The prepared peptide dilution was mixed with an equal volume of the oil-phase mixture to give an emulsified product, cocktail vaccine f. […] Then, after removal of the supernatant from the wells, stained spots on the ELISPOT plate were counted.

`CCCCCNc1nc(N)nc(C)c1Cc1ccc(CN(C)CCOCCOCCOCCOCCO)cc1OC` [Example 1, 1-(4-{[2-amino-4-methyl-6-(pentylamino)pyrimidin-5-yl]methyl}-3-methoxyphenyl)-2-methyl-5,8,11,14-tetraoxa-2-azahexadecan-16-ol·trifluoroacetate] was tested, and the “CTL counts responsive to Peptide of SEQ ID No. 1 or SEQ ID No. 4 compared with Reference example 12” value ([1]; added to cocktail vaccine a, 32.5 ng Example 1 vs 22.5 ng Reference example 12 per body) was “more”, the “induced CTL count on adding the compound to the vaccine” value ([1]; cocktail vaccine a, 32.5 ng Example 1 per body) was “increases” and the “CTL counts responsive to Peptide SEQ ID No. 1 or SEQ ID No. 4 compared with adding no compound” value [2] was “more”.
